Literature values, collected in patent US11554003B2, “Filtration devices and methods related thereto” (The Regents of the University of California, priority 2015, dated 2023).

Details: IAC; regardless of infused dose

first pass hepatic clearance: 50-70%
SMILES: COc1cccc2c1C(=O)c1c(O)c3c(c(O)c1C2=O)C[C@@](O)(C(=O)CO)C[C@@H]3O[C@H]1C[C@H](N)[C@H](O)[C@H](C)O1 [Dox, doxorubicin]
